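All cell lines were grown in 96-well plates and treated with compound for 48 hours. GI50 = concentration required for 50% inhibition of growth.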 Active and inactive are the calls of the source. Rule as the data show it: active = GI50 up to about 1.1 µM and inactive = higher.
What was measured:
Assay in all cases: growth of human tumour cells (NCI), 48 h
HT-29 = tested on: HT-29
U-251 = tested on: U-251
KM12 = tested on: KM12
OVCAR-8 = tested on: OVCAR-8
SNB-19 = tested on: SNB-19
RXF 393 = tested on: RXF 393
HCT-15 = tested on: HCT-15
MCF7 = tested on: MCF7
HL-60 = tested on: HL-60
SK-MEL-28 = tested on: SK-MEL-28
SNB-75 = tested on: SNB-75
T47D = tested on: T47D
CCRF-CEM = tested on: CCRF-CEM
HCT-116 = tested on: HCT-116
A549 = tested on: A549
A498 = tested on: A498
EKVX = tested on: EKVX
NCI-H226 = tested on: NCI-H226
MDA-N = tested on: MDA-N
SK-MEL-2 = tested on: SK-MEL-2
OVCAR-4 = tested on: OVCAR-4
OVCAR-5 = tested on: OVCAR-5
SF-295 = tested on: SF-295
ACHN = tested on: ACHN
M14 = tested on: M14
HOP-62 = tested on: HOP-62
SF-268 = tested on: SF-268
MOLT-4 = tested on: MOLT-4
IGROV-1 = tested on: IGROV-1
MDA-MB-231 = tested on: MDA-MB-231
COLO 205 = tested on: COLO 205
786-0 = tested on: 786-0
SW-620 = tested on: SW-620
SR = tested on: SR
NCI-H460 = tested on: NCI-H460
HOP-92 = tested on: HOP-92
NCI-H23 = tested on: NCI-H23
PC-3 = tested on: PC-3
CAKI-1 = tested on: CAKI-1
Malme-3M = tested on: Malme-3M
NCI/ADR-RES = tested on: NCI/ADR-RES
BT-549 = tested on: BT-549
HCC 2998 = tested on: HCC 2998
LOX IMVI = tested on: LOX IMVI
SF-539 = tested on: SF-539
UO-31 = tested on: UO-31
DU-145 = tested on: DU-145
NCI-H522 = tested on: NCI-H522
UACC-257 = tested on: UACC-257
Hs-578T = tested on: Hs-578T
SK-MEL-5 = tested on: SK-MEL-5
MDA-MB-435 = tested on: MDA-MB-435
TK-10 = tested on: TK-10
OVCAR-3 = tested on: OVCAR-3
UACC-62 = tested on: UACC-62
K562 = tested on: K562
RPMI-8226 = tested on: RPMI-8226
SN12C = tested on: SN12C
SK-OV-3 = tested on: SK-OV-3

With `CCOC(=O)CCc1c(C)nc2c(C)c3c([nH]c4ccc(Cl)cc43)c(C)c2c1O` the GI50 (HT-29) was 4.75 µM (inactive), the GI50 (U-251) was 11 µM (inactive) and the GI50 (KM12) was 11.7 µM (inactive). The GI50 (OVCAR-8) was 23.5 µM (inactive), the GI50 (SNB-19) was 9.59 µM (inactive) and the GI50 (RXF 393) was 2.96 µM (inactive). The GI50 (HCT-15) was 12.2 µM, the GI50 (MCF7) was 7 µM (inactive) and the GI50 (HL-60) was 4.94 µM (inactive). For the same compound, the GI50 (SK-MEL-28) was 14.1 µM (inactive), the GI50 (SNB-75) was 4.37 µM (inactive) and the GI50 (T47D) was 14.8 µM (inactive). For the same compound, the GI50 (CCRF-CEM) was 7.91 µM (inactive), the GI50 (HCT-116) was 10.9 µM (inactive) and the GI50 (A549) was 4.51 µM (inactive). The GI50 (A498) was 1.8 µM (inactive), the GI50 (EKVX) was 10.2 µM (inactive) and the GI50 (NCI-H226) was 17.1 µM (inactive). The GI50 (MDA-N) was 10.7 µM (inactive), the GI50 (SK-MEL-2) was 1.45 µM (inactive) and the GI50 (OVCAR-4) was 6.89 µM (inactive). For the same compound, the GI50 (OVCAR-5) was 0.843 µM (active), the GI50 (SF-295) was 5.55 µM (inactive) and the GI50 (ACHN) was 12.1 µM (inactive). For the same compound, the GI50 (M14) was 4.94 µM (inactive), the GI50 (HOP-62) was 12.3 µM (inactive) and the GI50 (SF-268) was 14.3 µM (inactive). For the same compound, the GI50 (MOLT-4) was 6.01 µM (inactive), the GI50 (IGROV-1) was 10.2 µM (inactive) and the GI50 (MDA-MB-231) was 12.6 µM (inactive). The GI50 (COLO 205) was 10.4 µM (inactive), the GI50 (786-0) was 6.37 µM (inactive) and the GI50 (SW-620) was 22.4 µM (inactive). The GI50 (SR) was 6.55 µM (inactive), the GI50 (NCI-H460) was 2.15 µM (inactive) and the GI50 (HOP-92) was 15.8 µM (inactive). For the same compound, the GI50 (NCI-H23) was 19.2 µM (inactive), the GI50 (PC-3) was 4.19 µM (inactive) and the GI50 (CAKI-1) was 18.2 µM (inactive). The GI50 (Malme-3M) was 11.3 µM (inactive), the GI50 (NCI/ADR-RES) was 17.3 µM (inactive) and the GI50 (BT-549) was 10.1 µM (inactive). The GI50 (HCC 2998) was 14.1 µM (inactive), the GI50 (LOX IMVI) was 10.9 µM (inactive) and the GI50 (SF-539) was 11.2 µM (inactive). For the same compound, the GI50 (UO-31) was 16.1 µM (inactive), the GI50 (DU-145) was 25.5 µM (inactive) and the GI50 (NCI-H522) was 6.81 µM (inactive). For the same compound, the GI50 (UACC-257) was 6 µM (inactive), the GI50 (Hs-578T) was 17.6 µM (inactive) and the GI50 (SK-MEL-5) was 6.12 µM (inactive). The GI50 (MDA-MB-435) was 9.18 µM (inactive) and the GI50 (TK-10) was 10.7 µM (inactive).

In the case of `O=C(O)c1cc(-c2ccc3cc4c(cc3c2)OCO4)nc2ccccc12`, the GI50 (HT-29) was 25.9 µM (inactive), the GI50 (U-251) was 19.7 µM (inactive) and the GI50 (KM12) was > 100 µM (inactive). For the same compound, the GI50 (OVCAR-8) was 37.1 µM (inactive), the GI50 (SNB-19) was 25.7 µM (inactive) and the GI50 (RXF 393) was 54 µM (inactive). The GI50 (HCT-15) was 12.3 µM, the GI50 (MCF7) was 32.2 µM (inactive) and the GI50 (HL-60) was 16.5 µM (inactive). The GI50 (OVCAR-3) was 41.6 µM (inactive), the GI50 (SK-MEL-28) was 47.5 µM (inactive) and the GI50 (UACC-62) was 23.5 µM (inactive). For the same compound, the GI50 (SNB-75) was 49.7 µM (inactive), the GI50 (K562) was 32.5 µM (inactive) and the GI50 (T47D) was 54.8 µM (inactive). The GI50 (CCRF-CEM) was 11.3 µM (inactive), the GI50 (HCT-116) was 19.5 µM (inactive) and the GI50 (A549) was 21.1 µM (inactive). For the same compound, the GI50 (A498) was 23.9 µM (inactive), the GI50 (EKVX) was 14.4 µM (inactive) and the GI50 (NCI-H226) was 42.4 µM (inactive). The GI50 (MDA-N) was 36 µM (inactive), the GI50 (SK-MEL-2) was 62.7 µM (inactive) and the GI50 (OVCAR-4) was > 100 µM (inactive). The GI50 (RPMI-8226) was 45.9 µM (inactive), the GI50 (SN12C) was 20.8 µM (inactive) and the GI50 (OVCAR-5) was 28.5 µM (inactive). For the same compound, the GI50 (SF-295) was 23.8 µM (inactive), the GI50 (ACHN) was 37.8 µM (inactive) and the GI50 (M14) was 28 µM (inactive). For the same compound, the GI50 (HOP-62) was 41.1 µM (inactive), the GI50 (SF-268) was 28.6 µM (inactive) and the GI50 (MOLT-4) was 28.8 µM (inactive). For the same compound, the GI50 (IGROV-1) was 29 µM (inactive), the GI50 (SK-OV-3) was 44.7 µM (inactive) and the GI50 (MDA-MB-231) was 31.4 µM (inactive). For the same compound, the GI50 (COLO 205) was 42.4 µM (inactive), the GI50 (786-0) was 30.7 µM (inactive) and the GI50 (SW-620) was 45.2 µM (inactive). For the same compound, the GI50 (SR) was 7.45 µM (inactive), the GI50 (NCI-H460) was 12.9 µM (inactive) and the GI50 (HOP-92) was 20.1 µM (inactive). For the same compound, the GI50 (NCI-H23) was 43.8 µM (inactive), the GI50 (PC-3) was 14.1 µM (inactive) and the GI50 (Malme-3M) was 65.2 µM (inactive). For the same compound, the GI50 (NCI/ADR-RES) was 40.7 µM (inactive), the GI50 (BT-549) was 22.8 µM (inactive) and the GI50 (LOX IMVI) was 29.3 µM (inactive). For the same compound, the GI50 (SF-539) was 92.9 µM (inactive), the GI50 (UO-31) was 11.5 µM (inactive) and the GI50 (DU-145) was 63.4 µM (inactive). The GI50 (NCI-H522) was 35.3 µM (inactive), the GI50 (UACC-257) was 5.41 µM (inactive) and the GI50 (Hs-578T) was 49.2 µM (inactive). For the same compound, the GI50 (SK-MEL-5) was 24 µM (inactive), the GI50 (MDA-MB-435) was 85.3 µM (inactive) and the GI50 (TK-10) was 18.2 µM (inactive).

With `CN1CCc2cc3c(c4c2C1C(O)c1ccccc1-4)OCO3` (stereo not drawn) the GI50 (HT-29) was 3.5 µM (inactive), the GI50 (U-251) was 6.07 µM (inactive) and the GI50 (KM12) was 7.52 µM (inactive). For the same compound, the GI50 (OVCAR-8) was 7.53 µM (inactive), the GI50 (SNB-19) was 10.6 µM (inactive) and the GI50 (RXF 393) was 2.52 µM (inactive). For the same compound, the GI50 (HCT-15) was 3.59 µM, the GI50 (MCF7) was 4.31 µM (inactive) and the GI50 (HL-60) was 2.23 µM (inactive). For the same compound, the GI50 (OVCAR-3) was 14.4 µM (inactive), the GI50 (SK-MEL-28) was 20.2 µM (inactive) and the GI50 (UACC-62) was 8.22 µM (inactive). For the same compound, the GI50 (SNB-75) was 12.6 µM (inactive), the GI50 (K562) was 4.57 µM (inactive) and the GI50 (T47D) was 13 µM (inactive). The GI50 (CCRF-CEM) was 2.41 µM (inactive), the GI50 (HCT-116) was 3.68 µM (inactive) and the GI50 (A549) was 3.89 µM (inactive). The GI50 (A498) was 3.27 µM (inactive), the GI50 (EKVX) was 7.83 µM (inactive) and the GI50 (MDA-N) was 5.08 µM (inactive). The GI50 (SK-MEL-2) was 9.59 µM (inactive), the GI50 (OVCAR-4) was 6.04 µM (inactive) and the GI50 (RPMI-8226) was 7.01 µM (inactive). For the same compound, the GI50 (SN12C) was 3.03 µM (inactive), the GI50 (OVCAR-5) was 8.24 µM (inactive) and the GI50 (SF-295) was 5.69 µM (inactive). For the same compound, the GI50 (ACHN) was 6.05 µM (inactive), the GI50 (M14) was 5.12 µM (inactive) and the GI50 (HOP-62) was 4.67 µM (inactive). The GI50 (SF-268) was 6.3 µM (inactive), the GI50 (MOLT-4) was 2.98 µM (inactive) and the GI50 (IGROV-1) was 6.61 µM (inactive). The GI50 (SK-OV-3) was 21.4 µM (inactive), the GI50 (MDA-MB-231) was 6.05 µM (inactive) and the GI50 (COLO 205) was 4.95 µM (inactive). The GI50 (786-0) was 6.21 µM (inactive), the GI50 (SW-620) was 7.53 µM (inactive) and the GI50 (SR) was 4.6 µM (inactive). The GI50 (NCI-H460) was 3.33 µM (inactive), the GI50 (HOP-92) was 2.16 µM (inactive) and the GI50 (NCI-H23) was 12 µM (inactive). The GI50 (PC-3) was 5.37 µM (inactive), the GI50 (CAKI-1) was 3.75 µM (inactive) and the GI50 (Malme-3M) was 8 µM (inactive). For the same compound, the GI50 (NCI/ADR-RES) was 6.47 µM (inactive), the GI50 (BT-549) was 3.86 µM (inactive) and the GI50 (HCC 2998) was 8.91 µM (inactive). The GI50 (LOX IMVI) was 4.25 µM (inactive), the GI50 (SF-539) was 4.72 µM (inactive) and the GI50 (UO-31) was 6.1 µM (inactive). The GI50 (DU-145) was 9.73 µM (inactive), the GI50 (NCI-H522) was 2.93 µM (inactive) and the GI50 (UACC-257) was 7.19 µM (inactive). The GI50 (Hs-578T) was 3.19 µM (inactive), the GI50 (SK-MEL-5) was 7.98 µM (inactive) and the GI50 (MDA-MB-435) was 6.12 µM (inactive). For the same compound, the GI50 (TK-10) was 14.2 µM (inactive).
